Data published in the supplement of paper PMC9386025.

Tests used:
Assay in all cases: drug sensitivity score (DSS) (DSS (dimensionless)); higher = more sensitive (stronger drug response)
FIMM-PDC1 = patient-derived ovarian cancer cells; details: genetic perturbation: none (patient-derived cell culture)
Procedure, shortened: (§1)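 Cells, either patient-derived cultures or ovarian cancer cell lines given 100 ng/ml doxycycline for no less than three days to induce shRNA, went into 384-well plates at 1 000 – 1 500 per well over drugs pre-plated in five concentrations across a 10,000-fold range. The plates were held for three days at 37 °C with 5.0 % CO2. Cell viability was then taken from CellTiter-Glo luminescence on a PHERAstar FS. For each drug, a drug sensitivity score from its dose-response curve was obtained by a method described earlier.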

FIMM-PDC3 = patient-derived ovarian cancer cells; details: genetic perturbation: none (patient-derived cell culture)
Procedure, shortened: as §1

FIMM-PDC4 = patient-derived ovarian cancer cells; details: genetic perturbation: none (patient-derived cell culture)
Procedure, shortened: as §1

FIMM-PDC5 = patient-derived ovarian cancer cells; details: genetic perturbation: none (patient-derived cell culture)
Procedure, shortened: as §1

FIMM-PDC6 = patient-derived ovarian cancer cells; details: genetic perturbation: none (patient-derived cell culture)
Procedure, shortened: as §1

FIMM-PDC7 = patient-derived ovarian cancer cells; details: genetic perturbation: none (patient-derived cell culture)
Procedure, shortened: as §1

JHOS2 = tested on: JHOS2
Procedure, shortened: as §1

Kuramochi = tested on: Kuramochi
Procedure, shortened: as §1

OVSAHO = tested on: OVSAHO
Procedure, shortened: as §1

[1] = genetic perturbation: DOX-induced PTK7 shRNA knockdown
[2] = genetic perturbation: DOX-induced control shRNA

SMILES | drug sensitivity score (FIMM-PDC1) | drug sensitivity score (FIMM-PDC3) | drug sensitivity score (FIMM-PDC4) | drug sensitivity score (FIMM-PDC5) | drug sensitivity score (FIMM-PDC6) | drug sensitivity score (FIMM-PDC7) | drug sensitivity score (JHOS2; [1]) | drug sensitivity score (JHOS2; [2]) | drug sensitivity score (Kuramochi; [1]) | drug sensitivity score (Kuramochi; [2]) | drug sensitivity score (OVSAHO; [1]) | drug sensitivity score (OVSAHO; [2])
CN1CCN(C2CCC(n3cc(-c4ccc(Oc5ccccc5)cc4)c4c(N)ncnc43)CC2)CC1 (configuration not stated) | 5.85 | 14.6 | 18.6 | 18.4 | 14.7 | 7 | 9.9 | 11.5 | 16.8 | 12 | 18.9 | 10.8
CCCCCCCCCCCCCCCCOP(=O)([O-])OCC[N+](C)(C)C [Miltefosine] | 2.55 | 5.7 | 6.6 | 10.6 | 10.2 | 8.1 | 13 | 5.2 | 4.9 | 4.9 | 5.9 | 3.6
Cc1nc(-c2cn3c(n2)-c2ccc(-c4cnn(C(C)(C)C(N)=O)c4)cc2OCC3)n(C(C)C)n1 [Taselisib] | 4.2 | 6.7 | 9.5 | 11.6 | 6.3 | 12.3 | 4.3 | 2.4 | 4.5 | 1.1 | 3.1 | 4.7
O=C(O)C1(C(=O)O)CCC1.[NH2-].[NH2-].[Pt+2] [Carboplatin] | 2.55 | 16.2 | 3.2 | 3.8 | 2.8 | 2.4 | 7.6 | 5.3 | 4.4 | 4.7 | 8.7 | 2.7
O=C(/C=C/c1cccc(S(=O)(=O)Nc2ccccc2)c1)NO [Belinostat] | 9.65 | 14.1 | 5.5 | 12.3 | 13 | 10 | 13 | 9.4 | 17.6 | 7.6 | 15.2 | 9.7
CC(C)C[C@H](NC(=O)[C@H](CCc1ccccc1)NC(=O)CN1CCOCC1)C(=O)N[C@@H](Cc1ccccc1)C(=O)N[C@@H](CC(C)C)C(=O)[C@@]1(C)CO1 [Carfilzomib] | 26.6 | 28.3 | 22.2 | 23.6 | 29.3 | 26.1 | 25.2 | 23.7 | 21.9 | 25 | 24.9 | 20.5
COc1ccccc1S(=O)(=O)Nc1ccc2c(c1)CN(C)C(=O)N2 [PFI-1] | 1.2 | 1.6 | 0.9 | 4.9 | 1.3 | 1.3 | 2.1 | 3.4 | 7.65 | 5 | 4.4 | 8.4
CC[C@@H]1C(=O)N(C)c2cnc(Nc3ccc(C(=O)NC4CCN(C)CC4)cc3OC)nc2N1C1CCCC1 [BI 2536] | 6.05 | 7.5 | 6.1 | 19.4 | 0.1 | 3.5 | 16 | 4.6 | 10.7 | 3 | 5.9 | 8.8
C1=N/C2=N/c3ccc(OCCN4CCCC4)c(c3)COC/C=C/COCc3cccc(c3)C(=C1)N2 [Pacritinib] | 6.7 | 7.7 | 7.6 | 10.6 | 7.5 | 5 | 9.3 | 10.9 | 7.05 | 9.3 | 10.1 | 9.6
CO[C@H]1C(=O)[C@]2(C)[C@@H](OC)C[C@H]3OC[C@@]3(OC(C)=O)[C@H]2[C@H](OC(=O)c2ccccc2)[C@]2(O)C[C@H](OC(=O)[C@H](O)[C@@H](NC(=O)OC(C)(C)C)c3ccccc3)C(C)=C1C2(C)C [Cabazitaxel] | 17.4 | 21.9 | 23.9 | 23.5 | 8.7 | 12.7 | 20.4 | 13.8 | 19.6 | 3.8 | 12.3 | 15.3
N#CCNC(=O)c1ccc(-c2ccnc(Nc3ccc(N4CCOCC4)cc3)n2)cc1 [Momelotinib] | 0.1 | 1.9 | 4.1 | 7.2 | 4.2 | 8 | 8.3 | 6.8 | 0.75 | 2.1 | 3.6 | 1.7
CCOc1ccccc1-n1c(C(C)N2CCN(C(=O)COc3ccc(Cl)cc3)CC2)nc2ccccc2c1=O (configuration not stated) [Erastin] | 0.85 | 17 | < 0 | < 0 | < 0 | 3.3 | 14.6 | 16.2 | 4.8 | 8.5 | 12.9 | 4.7
C[C@@H]1COC(Nc2ccc3ncnc(Nc4ccc(OCc5nccs5)c(Cl)c4)c3c2)=N1 [Varlitinib] | 1.1 | 8.6 | 9.5 | 12.6 | 5.2 | 6.9 | < 0 | < 0 | 0.05 | < 0 | 1.2 | < 0
CCNC(=O)C[C@@H]1N=C(c2ccc(Cl)cc2)c2cc(OC)ccc2-n2c(C)nnc21 [Molibresib] | 1.7 | 3.5 | 3.3 | 7.6 | 4.2 | 6.6 | 6.8 | 5.3 | 8.65 | 4 | 6 | 9.4
C#Cc1cccc(Nc2ncnc3cc4c(cc23)OCCOCCOCCO4)c1 [Icotinib] | 0.8 | 8.6 | 10.5 | 12.7 | 6.1 | 5.3 | < 0 | 1 | 0.6 | 1.6 | 0.8 | 0.5
COc1cc(N2CCC(N3CCN(C)CC3)CC2)ccc1Nc1ncnc(Nc2ccccc2S(=O)(=O)C(C)C)n1 [ASP3026] | 3.85 | 5.5 | 8.1 | 7.7 | 5.3 | 3.4 | 5.7 | 5.1 | 4.5 | 3.2 | 5.3 | 4.5
